Activity calls are given as the source filed them. The rule behind the calls is not given here.
Legend:
HepG2 [1] = assay: Induction of p53 protein level in human HepG2 cells at 50 uM upto 24 hrs by immunoblot analysis; assay type: functional, cell-based
HepG2 [2] = assay: Induction of p53 protein level in human HepG2 cells at 50 uM by immunoblot analysis; assay type: functional, cell-based; conditions: TDE = time-dependent effect

| Compound | Activity (HepG2 [1]) | Activity (HepG2 [2]) |
| --- | --- | --- |
| CCc1ccc(CCOc2ccc(CC3SC(=O)NC3=O)cc2)nc1 (centres undefined) | inactive | – |
| CN(CCOc1ccc(CC2SC(=O)NC2=O)cc1)c1ccccn1 (centres undefined) | inactive | – |
| Cc1c(C)c2c(c(C)c1O)CCC(C)(COc1ccc(CC3SC(=O)NC3=O)cc1)O2 (centres undefined) | Active | tde |
